In patent publication US12617783B2, “Heterocyclic GLP-1R agonists” (BIOMEA FUSION, INC., priority 2024, dated 2026):
pEC50: −log10 of the molar value.

Biological target: T1, human GLP-1R (Homo sapiens, UniProt P43220)
T1 construct: host or cells: HEK293
Assay: GLP-1R cAMP assay (Example B1a, HTRF, 30 min at room temperature)
Assay type: cell-based
Conditions: cAMP accumulation in HEK293 expressing human GLP-1R, no BETP, 30 min room temperature (Method B1a, compounds ID 1-609), Table 1; read-out: EC50
Experimental: Assay was carried out with HEK293 expressing human GLP-1R using HTRF assay, developed by Wuxi Apptec. The method is a competitive assay between native cAMP produced by the cells and exogenous cAMP labeled with a proprietary dye d2. The tracer binding is visualized by a mAb anti-cAMP labeled with Cryptate. The signal (i.e. energy transfer) is inversely proportional to the concentration of CAMP in either standard or experimental sample. Compounds were tested in the absence of BETP. Ten microliter of cell suspension in assay buffer (5 mM HEPES, 500 μM IBMX, 0.1% BSA) were added to each well (1,000 cells per well) in a low volume 384-well plate for the assay. Serially diluted compounds were added in 100 nL volume to duplicate wells, by Labcyte Echo. GLP-1 (7-37) was used as positive control. Assay plate was incubated for 30 minutes at room temperature. Stock of cAMP Detection Solution was prepared by mixing 38 parts of cAMP lysis buffer, 1 part of cAMP-D2, 1 part of anti-cAMP cryptate reagent (Cisbio #62AM4PEJ). Ten microliter of the cAMP Detection Solution was added to each well, and the assay plate was incubated for 1 hour at room temperature in the dark. Plates were read on Envision plate reader. The data were analyzed by ScreenUltra in Dotmatics, with % activation expressed using following formula: (Well data−negative control)/(postive control−negative control)*100. Dose response curves were plotted and EC50 values calculated by non-linear regression using 4-parameter fit.

T1 sequence (P43220 24-463): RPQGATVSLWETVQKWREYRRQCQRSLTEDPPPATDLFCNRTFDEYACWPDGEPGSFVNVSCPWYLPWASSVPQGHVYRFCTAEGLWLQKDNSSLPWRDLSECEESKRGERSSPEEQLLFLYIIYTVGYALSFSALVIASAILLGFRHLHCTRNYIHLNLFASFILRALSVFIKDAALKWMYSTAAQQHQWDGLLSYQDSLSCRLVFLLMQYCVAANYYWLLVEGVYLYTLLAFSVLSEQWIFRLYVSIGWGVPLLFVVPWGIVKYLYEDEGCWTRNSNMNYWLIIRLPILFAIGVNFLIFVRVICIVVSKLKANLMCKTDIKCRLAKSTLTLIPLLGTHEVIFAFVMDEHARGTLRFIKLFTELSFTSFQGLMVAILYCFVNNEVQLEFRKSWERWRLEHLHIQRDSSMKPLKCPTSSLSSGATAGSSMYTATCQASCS

Row | SMILES | pEC50
1 | Cc1cc(-n2nc3c(c2-n2ccn(-c4ccc5c(cnn5C)c4F)c2=O)[C@@H]2CCC[C@H](C3)N2S(=O)(=O)c2cc3cc([C@H]4CCOC5(CC5)C4)ccc3n2[C@]2(c3noc(=O)[nH]3)C[C@@H]2C)cc(C)c1F [Compound 609, 3-[(1R,2S)-1-[2-[[(1S,8R)-4-(4-fluoro-3,5-dimethyl-phenyl)-3-[3-(4-fluoro-1-methyl-indazol-5-yl)-2-oxo-imidazol-1-yl]-4,5,12-triazatricyclo[6.3.1.02,6]dodeca-2,5-dien-12-yl]sulfonyl]-5-[(7S)-4-oxaspiro [2.5]octan-7-yl]indol-1-yl]-2-methyl-cyclopropyl]-4H-1,2,4-oxadiazol-5-one] | ≤ 5.00
2 | Cc1cc(-n2nc3c(c2-n2ccn(-c4ccc5c(cnn5C)c4F)c2=O)[C@@H]2CCC[C@H](C3)N2S(=O)(=O)c2cc3cc(N4CCOC5(CC5)C4)ccc3n2[C@@]2(c3noc(=O)[nH]3)C[C@@H]2C)cc(C)c1F [Compound 535, 3-[(1S,2S)-1-[2-[[(1S,8R)-4-(4-fluoro-3,5-dimethyl-phenyl)-3-[3-(4-fluoro-1-methyl-indazol-5-yl)-2-oxo-imidazol-1-yl]-4,5,12-triazatricyclo[6.3.1.02,6]dodeca-2,5-dien-12-yl]sulfonyl]-5-(4-oxa-7-azaspiro[2.5]octan-7-yl)indol-1-yl]-2-methyl-cyclopropyl]-4H-1,2,4-oxadiazol-5-one] | 5.72
3 | Cc1cc(-n2nc3c(c2-n2ccn(-c4ccc5c(cnn5C)c4F)c2=O)[C@H]2CC[C@@H](C3)N2C(=O)c2cc3cc([C@@H]4CCOC5(CC5)C4)ccc3n2[C@@]2(c3noc(=O)[nH]3)C[C@H]2C)cc(C)c1F [Compound 540, 3-((1S,2R)-1-(2-((4R,7S)-3-(3-(4-fluoro-1-methyl-1H-indazol-5-yl)-2-oxo-2,3-dihydro-1H-imidazol-1-yl)-2-(4-fluoro-3,5-dimethylphenyl)-2,4,5,6,7,8-hexahydro-4,7-epiminocyclohepta [c]pyrazole-9-carbonyl)-5-((R)-4-oxaspiro[2.5]octan-7-yl)-1H-indol-1-yl)-2-methylcyclopropyl)-1,2,4-oxadiazol-5 (4H)-one] | ≤ 5.00
4 | Cc1cc(-n2nc3c(c2-n2ccn(-c4ccc5ccncc5c4F)c2=O)[C@@H]2CCC[C@H](C3)N2S(=O)(=O)c2cc3cc([C@H]4CCOC(C)(C)C4)ccc3n2[C@@]2(c3noc(=O)[nH]3)C[C@@H]2C)cc(C)c1F [Compound 602, 3-[(1S,2S)-1-[5-[(4S)-2,2-dimethyltetrahydropyran-4-yl]-2-[[(1S,8R)-4-(4-fluoro-3,5-dimethyl-phenyl)-3-[3-(8-fluoro-7-isoquinolyl)-2-oxo-imidazol-1-yl]-4,5,12-triazatricyclo[6.3.1.02,6]dodeca-2,5-dien-12-yl]sulfonyl]indol-1-yl]-2-methyl-cyclopropyl]-4H-1,2,4-oxadiazol-5-one] | 5.96
5 | Cc1cc(-n2nc3c(c2-n2ccn(-c4ccc5c(cnn5C)c4F)c2=O)CCN(C(=O)c2cc4cc([C@H]5CCOC(C)(C)C5)ccc4n2[C@@]2(c4noc(=O)[nH]4)C[C@@H]2C)CC3)cc(C)c1F [Compound 421, 3-[(1S,2S)-1-[5-[(4S)-2,2-dimethyltetrahydropyran-4-yl]-2-[2-(4-fluoro-3,5-dimethyl-phenyl)-3-[3-(4-fluoro-1-methyl-indazol-5-yl)-2-oxo-imidazol-1-yl]-4,5,7,8-tetrahydropyrazolo[3,4-d]azepine-6-carbonyl]indol-1-yl]-2-methyl-cyclopropyl]-4H-1,2,4-oxadiazol-5-one] | ≤ 5.00
6 | Cc1cc(-n2nc3c(c2-n2ccn(-c4ccc5c(cnn5C)c4F)c2=O)[C@@H]2CC[C@H](C3)N2C(=O)c2cc3sc(C4CCOC(C)(C)C4)nc3n2[C@@]2(c3noc(=O)[nH]3)C[C@@H]2C)cc(C)c1F (stereo partly drawn) [Compound 245, 3-[(1S,2S)-1-[2-(2,2-dimethyltetrahydropyran-4-yl)-5-[(1S,8R)-4-(4-fluoro-3,5-dimethyl-phenyl)-3-[3-(4-fluoro-1-methyl-indazol-5-yl)-2-oxo-imidazol-1-yl]-4,5,11-triazatricyclo[6.2.1.02,6]undeca-2,5-diene-11-carbonyl]pyrrolo[2,3-d]thiazol-4-yl]-2-methyl-cyclopropyl]-4H-1,2,4-oxadiazol-5-one] | 5.29
7 | Cc1cc(-n2nc3c(c2-n2ccn(-c4ccc5c(cnn5C)c4F)c2=O)[C@H](C)N(C(=O)c2cc4cc([C@H]5CCOC(C)(C)C5)ccc4n2C(=O)c2noc(=O)[nH]2)CC3)cc(C)c1F [Compound 115, 3-[5-[(4S)-2,2-dimethyltetrahydropyran-4-yl]-2-[(4S)-2-(4-fluoro-3,5-dimethyl-phenyl)-3-[3-(4-fluoro-1-methyl-indazol-5-yl)-2-oxo-imidazol-1-yl]-4-methyl-6,7-dihydro-4H-pyrazolo[4,3-c]pyridine-5-carbonyl]indole-1-carbonyl]-4H-1,2,4-oxadiazol-5-one] | < 5.00
8 | Cc1cc(-n2nc3c(c2-n2ccn(-c4ccc5c(cnn5C)c4F)c2=O)[C@@H]2CC[C@H](C3)N2C(=O)c2cc3c(=O)n([C@@H]4CCOC(C)(C)C4)ccc3n2[C@@]2(c3noc(=O)[nH]3)C[C@@H]2C)cc(C)c1F [Compound 239, 3-[(1S,2S)-1-[5-[(4R)-2,2-dimethyltetrahydropyran-4-yl]-2-[(1S,8R)-4-(4-fluoro-3,5-dimethyl-phenyl)-3-[3-(4-fluoro-1-methyl-indazol-5-yl)-2-oxo-imidazol-1-yl]-4,5,11-triazatricyclo[6.2.1.02,6]undeca-2,5-diene-11-carbonyl]-4-oxo-pyrrolo[3,2-c]pyridin-1-yl]-2-methyl-cyclopropyl]-4H-1,2,4-oxadiazol-5-one] | < 5.00
9 | Cc1cc(-n2nc3c(c2-n2ccn(-c4ccc5c(cnn5C)c4F)c2=O)[C@@H]2CC[C@H](C3)N2C(=O)c2cc3cc([C@@H]4CCOC5(CC5)C4)ccc3n2[C@@]2(c3noc(=O)[nH]3)C[C@@H]2C)cc(C)c1F [Compound 215, 3-((1S,2S)-1-(2-((4S,7R)-3-(3-(4-fluoro-1-methyl-1H-indazol-5-yl)-2-oxo-2,3-dihydro-1H-imidazol-1-yl)-2-(4-fluoro-3,5-dimethylphenyl)-2,4,5,6,7,8-hexahydro-4,7-epiminocyclohepta [c]pyrazole-9-carbonyl)-5-((R)-4-oxaspiro[2.5]octan-7-yl)-1H-indol-1-yl)-2-methylcyclopropyl)-1,2,4-oxadiazol-5 (4H)-one] | 5.38

Now those with a higher pEC50, led by results:

Row | pEC50 | SMILES
10 | 6.91 | Cc1cc(-n2nc3c(c2-n2ccn(-c4ccc5c(cnn5C)c4F)c2=O)[C@@H]2CC[C@H](C3)N2C(=O)c2cc3ccc(C4CCOCC4)cc3nc2C2(c3noc(=O)[nH]3)CC2C)cc(C)c1F (single isomer, unassigned) [Compound 237]
11 | 7.02 | CCS(=N)(=O)c1ccc(-n2ccn(-c3c4c(nn3-c3cc(C)c(F)c(C)c3)C[C@H]3CC[C@@H]4N3C(=O)c3cc4cc([C@H]5CCOC(C)(C)C5)ccc4n3[C@@]3(c4noc(=O)[nH]4)C[C@@H]3C)c2=O)c(F)c1 (stereo partly drawn) [Compound 428, 3-((1S,2S)-1-(5-((S)-2,2-dimethyltetrahydro-2H-pyran-4-yl)-2-((4S,7R)-3-(3-(4-(ethylsulfonimidoyl)-2-fluorophenyl)-2-oxo-2,3-dihydro-1H-imidazol-1-yl)-2-(4-fluoro-3,5-dimethylphenyl)-2,4,5,6,7,8-hexahydro-4,7-epiminocyclohepta [c]pyrazole-9-carbonyl)-1H-indol-1-yl)-2-methylcyclopropyl)-1,2,4-oxadiazol-5(4H)-one]
12 | 7.73 | Cc1cc(-n2nc3c(c2-n2ccn(-c4ccc5c(cnn5C)c4F)c2=O)[C@@H]2CC[C@H](C3)N2C(=O)c2cc3cc([C@H]4CCOC(C)(C)C4)cnc3n2[C@@]2(c3noc(=O)[nH]3)C[C@@H]2C)cc(C)c1F [Compound 313, 3-((1S,2S)-1-(5-((S)-2,2-dimethyltetrahydro-2H-pyran-4-yl)-2-((4S,7R)-3-(3-(4-fluoro-1-methyl-1H-indazol-5-yl)-2-oxo-2,3-dihydro-1H-imidazol-1-yl)-2-(4-fluoro-3,5-dimethylphenyl)-2,4,5,6,7,8-hexahydro-4,7-epiminocyclohepta [c]pyrazole-9-carbonyl)-1H-pyrrolo[2,3-b]pyridin-1-yl)-2-methylcyclopropyl)-1,2,4-oxadiazol-5 (4H)-one]
13 | 7.74 | Cc1cc(-n2nc3c(c2-n2ccn(-c4ccc5[nH]ncc5c4F)c2=O)[C@@H]2CC[C@H](C3)N2C(=O)c2cc3cc([C@H]4CCOC(C)(C)C4)ccc3n2[C@@]2(c3noc(=O)[nH]3)C[C@@H]2C)cc(C)c1F [Compound 406, 3-((1S,2S)-1-(5-((S)-2,2-dimethyltetrahydro-2H-pyran-4-yl)-2-((4S,7R)-3-(3-(4-fluoro-1H-indazol-5-yl)-2-oxo-2,3-dihydro-1H-imidazol-1-yl)-2-(4-fluoro-3,5-dimethylphenyl)-2,4,5,6,7,8-hexahydro-4,7-epiminocyclohepta [c]pyrazole-9-carbonyl)-1H-indol-1-yl)-2-methylcyclopropyl)-1,2,4-oxadiazol-5 (4H)-one]
